Source: patent US20220274997A1, “PIM KINASE INHIBITOR COMPOSITIONS AND USES THEREOF” (Snap Bio, Inc., priority 2019, published 2022)
pEC50: −log10 of the molar value.

Test system: DU-145
Experiment: CellTiter-Glo cancer cell growth inhibition, DU-145
Assay type: cell-based
Details: Homo sapiens, DU-145, 72 h
Excerpt: The CellTiter-Glo® Luminescent Cell Viability Assay is a sensitive homogeneous method to determine the number of viable cells in culture, Detection is based on using the luciferase reaction to measure the amount of ATP from viable cells. The amount of ATP in cells correlates with cell viability. Within minutes after a loss of membrane integrity, cells lose the ability to synthesize ATP, and endogenous ATPases destroy any remaining ATP; thus the levels of ATP fall precipitously. The CellTiter-Glo® Reagent does three things upon addition to cells. It lyses cell membranes to release ATP; it inhibits endogenous ATPases, and it provides luciferin, luciferase and other reagents necessary to measure ATP using a bioluminescent reaction. The unique properties of a proprietary stable luciferase. There is a linear relationship (r2=0.99) between the luminescent signal and the number of cells from 0 to 50.000 cells per well.
All assays were performed by Reaction Biology Corporation (Malvern, Pa.) or ChemDiv, Inc. (San Diego, Calif.). […]
Conditions: 37° C., air 95%; HEPA-filtered carbon dioxide (CO2) 5%, humidified atmosphere. • Cells were grown in 175 cm^2 flasks to 80-90% of confluency. • Culture media was aspirated and cell layer was briefly rinsed with Versen solution to remove all traces of serum. • 2 mL of accutase was added to cells. • Flasks were retuned to incubator for 5 min to allow cell detachment. • Add 6.0 mL of complete growth medium. • Single cell suspension was created by gently pipetting. • Cells were counted using a Hematocytometer and a suspension with the desired cell concentration was prepared. […]
Stock solutions ([…]) were diluted with cell culture media to produce 500× serial dilutions and […] of final compound dilutions were added to cells in assay plates to screen a series of 10 doses starting at 100 mM. […] Luminescence intensity was measured for each well using the Tecan M 1000 microplate reader after 5 min of incubation with CellTiter-Glo Reagent. The number of viable cells in culture was determined based on quantitation of the ATP present in each culture well. […]

SMILES: CN[C@@H]1C[C@H]2O[C@@](C)([C@@H]1OC)n1c3ccccc3c3c4c(c5c6ccccc6n2c5c31)C(=O)NC4 [Staurosporine, reference compound]
- pEC50: 8.32
